Literature values as cited in US20220023282A1 (priority 2018, published 2022).

System: Mycobacterium tuberculosis isolates
Conditions: variety of Mycobacterium tuberculosis isolates, regardless of resistance to other anti-TB drugs; cited from earlier work

For `COc1nc2ccc(Br)cc2cc1[C@@H](c1ccccc1)[C@@](O)(CCN(C)C)c1cccc2ccccc12` [bedaquiline, (1R,2S)-1-(6-bromo-2-methoxyquinolin-3-yl)-4-(dimethylamino)-2-(naphthalen-1-yl)-1-phenylbutan-2-ol], the “Minimum Inhibitory Concentration (MIC) 99” value is given as 0.01 to 0.1 µg/mL.
